This note sets out measurements from the supplement of paper PMC11061612.

Assay [1] concerns NCI-H810 (Non-Small Cell Lung Carcinoma). The assay is described as follows: Bliss excess, mean over the matrix (fraction); higher = more synergy. The gist of the method:
(§1)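 After 24 hours at 37°C and 5% CO2 in 1536-well plates, cells in DMEM/F12 or RPMI plus 10% FBS received two-drug dose matrices for 72 hours. Viability came from CellTiter-Glo 2.0 luminescence and was scaled as inhibition, anchored at 0 by vehicle wells and at 1 by blank wells. Combination Emax is taken as the second-highest inhibition in the matrix, and Bliss excess as the observed combination effect less EA + EB − EA·EB, with EA and EB the single-agent effects.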

The next assay deals with 786-0 (Kidney Carcinoma). The assay is described as above. The gist of the method:
as §1

Assay [2] concerns NCI-H1563 (Lung Adenocarcinoma). The description is as above. The gist of the method:
as §1

Another assay has as its system RT4 (Bladder Carcinoma). The assay is described as above. The essentials: as §1
Assay [3] concerns AN3-CA (Endometrial Carcinoma). The assay is described as above. The gist of the method: as §1
The test system of assay [4] is SNU-175 (Colorectal Carcinoma). The assay is described as above. The essentials: as §1
Assay [5] deals with LOUCY (T-Lymphoblastic Leukemia). The description is as above. The gist of the method: as §1
Assay [6] deals with PC-14 (Lung Adenocarcinoma). The assay is described as above. The gist of the method: as §1
In assay [7] the test system is RERF-LC-KJ (Lung Adenocarcinoma). Described as above. The gist of the method:
as §1

Assay [8] deals with RMG-I (Ovarian Carcinoma). The description is as above. The gist of the method:
as §1

Assay [9] has as its system OCI-AML5 (Acute Myeloid Leukemia). Described as above. The essentials:
as §1

Assay [10] has as its system BALL-1 (B-Lymphoblastic Leukemia). The description is as above. The essentials: as §1
Assay [11] has as its system Caov-3 (Ovarian Carcinoma). The description is as above. The gist of the method:
as §1

Assay [12] has as its system HTC-C3 (Thyroid Gland Carcinoma). Described as above. The gist of the method: as §1
In the next assay the test system is ES-2 (Ovarian Carcinoma). The assay is described as above. The essentials:
as §1

Assay [13] has as its system SW684 (Other Solid Carcinomas). The description is as above. The gist of the method:
as §1

In assay [14] the test system is NKM-1 (Acute Myeloid Leukemia). The assay is described as above. The essentials:
as §1

For assay [15], the system named is PANC-02-03 (Pancreatic Carcinoma). The description is as above. The essentials:
as §1

Assay [16] relates to RL95-2 (Endometrial Carcinoma). In words: combination Emax (second highest fraction inhibited in the dose matrix, 72 h); higher = more inhibition; extreme values may be limits of the assay. The essentials: as §1
Assay [17] has as its system NKM-1 (Acute Myeloid Leukemia). Described as above. The essentials:
as §1
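For Bliss excess, mean over the matrix in this document: after 72 h of two-drug dosing.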

As to `COc1cc2c(cc1OCCCCCOc1cc3c(cc1OC)C(=O)N1C=C(C)C[C@H]1C=N3)N=C[C@@H]1CC(C)=CN1C2=O` [SG3199] + O=C(c1cc(Cc2n[nH]c(=O)c3ccccc23)ccc1F)N1CCN(C(=O)C2CC2)CC1 [Olaparib] (first compound max 0.001 µM, 7x7, partner max 10 µM), the Bliss excess is -0.0368 in [1]; -0.0223 in the assay on 786-0 (Kidney Carcinoma); -0.0428 in assay [2]; -0.0164 in the assay on RT4 (Bladder Carcinoma); -0.0292 in assay [3]; -0.0317 in assay [4]. Also, the Bliss excess in [5] was -0.039; in [6], -0.0274; in assay [7], -0.0235; in assay [8], -0.0599; in assay [9], 0.0232; in assay [10], 0.0476. The Bliss excess in assay [11] is -0.0475; in assay [12] it was -0.013; in the assay with ES-2 (Ovarian Carcinoma), -0.045; in assay [13], -0.056; in assay [14], -0.0362; in assay [15], -0.0487. For the same compound, the “combination Emax” value in assay [16] was determined as 0.264; in assay [17], 0.663.

With `Cc1cc2ncnn2cc1Nc1ncc2c(n1)n(C1CCOCC1)c(=O)n2C` [AZD7648] + CCN(CCO)CCCOc1ccc2c(Nc3cc(CC(=O)Nc4cccc(F)c4)[nH]n3)ncnc2c1 [AZD2811] (first compound max 10 µM, 7x7, partner max 1 µM), the Bliss excess in assay [1] is -0.0162; in the assay with 786-0 (Kidney Carcinoma), 0.0259; in assay [2], 0.0036; with RT4 (Bladder Carcinoma), 0.0534; in assay [3], 0.0113; in assay [4], 0.0136. The Bliss excess was -0.043 in assay [5]; 0.0257 in assay [6]; 0.0428 in [7]; 0.0097 in assay [8]; -0.0377 in assay [9]; 0.13 in [10]. Besides, the Bliss excess in assay [11] is -0.0523; in [12], 0.0226; in the assay with ES-2 (Ovarian Carcinoma) it was 0.0083; in assay [13], -0.027; in [14] it was 0.0545; in [15] it was 0.0163. Besides, the “combination Emax” value in [16] was determined as 0.595; in assay [17] it was 0.605.

Take `C=CCn1c(=O)c2cnc(Nc3ccc(N4CCN(C)CC4)cc3)nc2n1-c1cccc(C(C)(C)O)n1` [AZD1775] + C[C@@H]1COCCN1C2=NC(=NC(=C2)C3(CC3)[S@](=N)(=O)C)C4=C5C=CNC5=NC=C4 [AZD6738] (first compound max 1 µM, partner max 10 µM): the Bliss excess in assay [1] is 0.0223; in the assay on 786-0 (Kidney Carcinoma) it was 0.109; in assay [2], -0.0303; in the assay with RT4 (Bladder Carcinoma), -0.0068; in assay [3], -0.0159; in assay [4], 0.039. For the same compound, the Bliss excess is 0.025 in assay [5]; -0.005 in [6]; -0.0151 in assay [7]; -0.0161 in assay [8]; 0.005 in assay [9]; 0.0441 in assay [10]. Further, the Bliss excess is -0.025 in assay [11]; 0.101 in [12]; 0.0105 with ES-2 (Ovarian Carcinoma); -0.0662 in assay [13]; 0.0023 in assay [14]; -0.0701 in assay [15]. Moreover, the results for the “combination Emax” value in assay [16] and in assay [17] were 0.914 and 0.983, respectively.

With `CN(C)CCCOc1ccc(-c2ccc3ncc4c(c3c2)n(C2CCOCC2)c(=O)n4C)cn1` [AZD0156] + C[C@@H]1COCCN1C2=NC(=NC(=C2)C3(CC3)[S@](=N)(=O)C)C4=C5C=CNC5=NC=C4 [AZD6738] (first compound max 1 µM, 7x7, partner max 10 µM), the Bliss excess in assay [1] was -0.0082; with 786-0 (Kidney Carcinoma) it was -0.0177; in assay [2], -0.0063; in the assay on RT4 (Bladder Carcinoma) it was -0.0408; in assay [3] it was -0.0226; in assay [4] it was 0.0006. The Bliss excess in [5] is 0.0196; in assay [6], 0.0043; in [7], 0.0452; in assay [8], -0.0095; in [9], -0.0479; in assay [10] it was 0.0274. Moreover, the Bliss excess is -0.026 in assay [11]; 0.0193 in assay [12]; -0.0217 with ES-2 (Ovarian Carcinoma); -0.0526 in assay [13]; -0.11 in [14]; -0.0412 in [15]. For the same compound, the “combination Emax” value in assay [16] turned out to be 0.551; in assay [17] it was 0.814.

In the case of `CC1(C)CCC(CN2CCN(c3ccc(C(=O)NS(=O)(=O)c4ccc(NCC5CCOCC5)c([N+](=O)[O-])c4)c(Oc4cnc5[nH]ccc5c4)c3)CC2)=C(c2ccc(Cl)cc2)C1` [Venetoclax] + C[C@@H](Nc1cc(F)cc(F)c1)c1cc(C(=O)N(C)C)cc2c(=O)cc(N3CCOCC3)oc12 [AZD8186] (first compound max 1 µM, 7x7, partner max 3 µM), the Bliss excess in assay [1] is -0.0489; with 786-0 (Kidney Carcinoma) it was -0.0095; in assay [2] it was 0.0389; in the assay on RT4 (Bladder Carcinoma) it was -0.0208; in assay [3], -0.0453; in assay [4], -0.0201. Further, the Bliss excess in assay [5] was 0.0146; in assay [6], -0.0169; in assay [7] it was -0.0632; in [8], -0.0274; in assay [9], 0.0529; in assay [10] it was -0.0008. Moreover, the Bliss excess in [11] was -0.0548; in assay [12], -0.0236; with ES-2 (Ovarian Carcinoma), -0.0199; in assay [13] it was -0.0862; in assay [14] it was 0.0937; in [15], -0.0527. The “combination Emax” value in [16] amounted to 0.106; in assay [17], 1.

As for `CCN(CCO)CCCOc1ccc2c(Nc3cc(CC(=O)Nc4cccc(F)c4)[nH]n3)ncnc2c1` [AZD2811] + C=CCn1c(=O)c2cnc(Nc3ccc(N4CCN(C)CC4)cc3)nc2n1-c1cccc(C(C)(C)O)n1 [AZD1775] (first compound max 1 µM, partner max 1 µM), the Bliss excess in assay [1] is -0.0022; with 786-0 (Kidney Carcinoma), -0.0246; in assay [2], 0.001; with RT4 (Bladder Carcinoma), 0.0196; in assay [3] it was 0.0276; in [4] it was -0.0108. The Bliss excess in assay [5] was -0.019; in [6] it was -0.0026; in assay [7], 0.0515; in assay [8], -0.0711; in assay [9] it was -0.0295; in [10] it was 0.0612. The Bliss excess was -0.0603 in assay [11]; -0.0174 in assay [12]; -0.0111 in the assay on ES-2 (Ovarian Carcinoma); -0.0454 in [13]; 0.0269 in [14]; -0.0628 in assay [15]. For the same compound, the “combination Emax” value in [16] was 0.662; in assay [17], 0.879.

Consider `CCc1c2c(nc3ccc(O)cc13)-c1cc3c(c(=O)n1C2)COC(=O)[C@]3(O)CC` [SN-38] + CN(C)CCCOc1ccc(-c2ccc3ncc4c(c3c2)n(C2CCOCC2)c(=O)n4C)cn1 [AZD0156] (first compound max 0.3 µM, 7x7, partner max 1 µM), for which the Bliss excess in [1] was -0.0022; in the assay on 786-0 (Kidney Carcinoma), 0.0032; in assay [2], -0.0605; in the assay with RT4 (Bladder Carcinoma), -0.0184; in assay [3], -0.0446; in assay [4] it was 0.0229. Besides, the Bliss excess was 0.0406 in assay [5]; 0.0407 in assay [6]; -0.083 in assay [7]; 0.018 in assay [8]; -0.0231 in [9]; 0.0492 in [10]. Further, the Bliss excess in assay [11] was 0.0175; in assay [12] it was 0.105; in the assay with ES-2 (Ovarian Carcinoma), 0.0144; in [13] it was -0.0457; in assay [14] it was 0.033; in assay [15], -0.007. Besides, the results for the “combination Emax” value in assay [16] and in assay [17] were 0.424 and 0.973, respectively.
